Laboratory results taken from patent US20240091183A1 (Syros Pharmaceuticals, Inc., priority 2021, published 2024).

Assay: population PK model and simulations of flat versus BSA-based dosing of tamibarotene
Parameters: species or system human
Details: population PK analysis of prior study, 6 mg/m2/day in 2 divided doses
Procedure: The dose and regimen used in a prior study (6 mg/m^2/day in 2 divided doses) were based on the dose and regimen approved in Japan for the treatment of APL. […] Based on this analysis, the fixed dosing regimens described herein, including the 6 mg BID flat dosing regimen, are expected to provide similar PK exposures compared to the 6 mg/m^2/day (in 2 divided doses) regimen used in the prior study.
A population PK model was developed using patient characteristics, and we assessed the impact of weight on drug clearance. Simulations were conducted to assess the performance of “flat” versus BSA-based dosing. Simulated AUC (area-under-the-curve) from the model was used to establish relationship of exposure with efficacy and safety; we analyzed exposure and achievement of CR/CRi and exposure with adverse events equal to or greater than those of grade 3.

For Tamibarotene, the “association of body size with clearance” value was “not significantly associated”.
